# Measured values: US20170216329A1, “Ceramide-Rubusoside Nanomicelles and Their Use in Cancer Therapy” (Board of Supervisors of Louisiana State University and …, priority 2014, published 2017)
# Legend:
# [1] = system: OVCAR3 ovarian cancer cells (p53 R248 missense mutation); assay: Cell viability after 72 hours, OVCAR3; format: cell-based, Human
# Description: We examined the effect of Ceramide-RUB nanomicelles on p53 restoration in cancer cell models. Human OVCAR3 ovarian cancer cells carry a p53 R248 missense mutation, and are resistant to many anticancer drugs. […] FIG. 3 depicts cell viability (as a percentage of control) after treatment for 72 hours with varying concentrations of C6-Ceramide. FIG. 4 depicts cell viability (as a percentage of control) after treatment for 72 hours with varying concentrations of C6-Ceramide-Rubusoside. FIG. 5 depicts cell viability (as a percentage of control) after treatment for 72 hours with varying concentrations of Rubusoside.
# [2] = system: A2780 ovarian cancer cells (p53 wild-type); assay: Cell viability after 72 hours, A2780; format: cell-based
# [3] = system: protein phosphatase 1 (PP1); assay: PP1 activity in NCI/ADR-RES cells; format: cell-based, human
# Description: Cer can modulate gene expression, not only by activating transcription, but also by determining protein isoform. […] We assessed the roles of protein phosphatase 1 (PP1) and serine/arginine-rich splicing-factor 1 SRSF1 in Cer-induced wt p53 restoration via PP1 and SRSF1 in NCI/ADR-RES human ovarian cancer cells. […] Cells were pretreated with CalA (5 nM) for 4 hr, and then with either MBO-asGCS (MBO-as, 100 nM) or C6-Cer (2.5 μM) for 72 hr. FIG. 2 depicts PP1 activity in NCI/ADR-RES cells with various treatments. […] These increases were correlated with increases in wt p53 mRNA (exon 5) and pp53 (as assessed by RT-PCR amplification, data not shown).
# [4] = system: p53, Bax and p21 in the small intestine; assay: p53 restoration in heterozygous p53R172H/+ transgenic mice (small intestine); format: in vivo; conditions: 1 mg/kg, i.p., every 3 days for 6 days; vs. saline
# Description: We examined the effects of Cer on restoring wt p53 expression in p53 missense transgenic mice. The experimental animals were heterozygous 129S4-Trp53^tm2.1Tyj transgenic mice, which carry the mutation p53^R172H/+, and have a genetic predisposition to cancer. (Doyle et al., 2010; Olive et al., 2004; Yu et al., 2012) These mice were generously provided by the NCI Mouse Repository (Rockville, Md.). We analyzed the genotypes of offspring by PCR analysis of DNA from blood collected from the tail vein. Heterozygous (HTZ) p53^R172H/+ mice were treated with C6-Cer or C6-Cer-RUB (1 mg/kg, i.p., every 3 days for 6 days).
# [5] = system: wt p53 (phosphorylated-Ser15); conditions: cited from earlier work
# [6] = system: HTZ SW48/TP53+/− and parental SW48 (wt p53) cells; assay: Sensitivity of SW48 cells to Cers; format: cell-based, human; conditions: both cell lines, data not shown
# [7] = WHO intake limits (ADI, NOEL); conditions: converted from the steviol ADI
# Description: (§1) Rubusoside (RUB) is a steviol glycoside. Steviol glycosides, extracted from the leaves of various plants, are often used as natural food sweeteners. […] Rubusoside is generally recognized as safe (GRAS) as a food additive for the general public according to the World Health Organization (WHO) (2005). A WHO expert panel has set 760 mg/kg/day RUB as the no-observed-effect level (NOEL) (2005). Thus there is ample tolerance for avoiding toxicity when rubusoside is employed in the present invention.
# [8] = set by WHO expert panel (2005); cited from earlier work
# [9] = Preliminary oral toxicity study in normal mice; format: in vivo; conditions: up to 4 g daily per kg body mass, orally, two weeks
# Description: as §1
compound,measurement,setting,value
"CCCCCCCCCCCCC/C=C/[C@@H](O)[C@H](CO)NC(=O)CCCCC [C6-Cer, C6-Ceramide]",IC50,"[1]; OVCAR3 cells, 72 hours",12.5 µM
same,resistance of OVCAR3 relative to A2780 cells,[1]; ratio of IC50 values,12 times
same,IC50,[2],900 nM
same,PP1 activity,"[3]; MBO-asGCS 100 nM or C6-Cer 2.5 μM, 72 hr",significantly increased
same,protein level of Bax in the small intestine,[4],significantly increased
same,protein level of p53 in the small intestine,[4],significantly increased
same,restoration of p53 activity,"[5]; exogenous, Liu et al., 2011",restored p53 activity
CCCCCCCCCCCCC/C=C/[C@@H](O)[C@H](CO)NC(=O)CCCCCCCCCCCCCCCCC [C18-Cer],relative sensitivity of cells to Cers,[6],more sensitive to C18-Cer than C6-Cer
CCCC[C@@H](C)[C@@H](OC(=O)C[C@@H](CC(=O)O)C(=O)O)[C@H](C[C@@H](C)C[C@H](O)CCCC[C@@H](O)C[C@H](O)[C@H](C)N)OC(=O)C[C@@H](CC(=O)O)C(=O)O [Fumonisin B1],effect on p53 restoration by MBO-asGCS,[5]; inhibitor of Cer synthase,inhibited p53 restoration
"C=C1C[C@@]23CC[C@H]4[C@@](C)(CCC[C@@]4(C)C(=O)O[C@@H]4O[C@H](CO)[C@@H](O)[C@H](O)[C@H]4O)[C@@H]2CC[C@]1(O[C@@H]1O[C@H](CO)[C@@H](O)[C@H](O)[C@H]1O)C3 [Rubusoside, rubusoside]",cytotoxicity,"[1]; OVCAR-3 cells, any concentration tested up to 15 μM, 72 hours",no cytotoxicity
same,cytotoxicity,[2]; any concentration tested up to 15 μM,no cytotoxicity
same,"Accepted Daily Intake (ADI), roughly comparable amount",[7],8 to 12 mg/kg/day
same,no-observed-effect level (NOEL),[8],760 mg/kg/day
same,clinical signs of toxicity,[9],did not cause any clinical signs of toxicity
COC[C@@H]([C@H](O)[C@H](O)C(=O)NCC[C@H](C)c1nc(/C=C/C[C@@H]2O[C@]3(C[C@@H](O)[C@@H]2C)O[C@H]([C@H](C[C@H](O)[C@H](C)[C@H](O)[C@H](C)/C=C(C)/C(C)=C/C=C/C(C)=C\C#N)OC)[C@H](OP(=O)(O)O)C3(C)C)co1)N(C)C [calyculin A],effect on PP1 activation by MBO-asGCS and C6-Cer,[3],abolished these effects
